This note sets out measurements from patent US10138207B2, “Benzomorphan analogs and the use thereof” (priority 2012, dated 2018).

In general, EC50 refers to the concentration giving half of the maximal effect. Broadly, the Emax is the size of the effect at its maximum, as opposed to the concentration needed.

Like-named read-outs stand apart in the source and are kept apart here.

Test [1] concerns the target T1, μ-opioid receptor (Homo sapiens, UniProt P35372). Description: μ-opioid receptor [35S]GTPγS functional assay, U-2 OS cells. The format is biochemical. Also on record: expressed in transfected cells; host or cells: U-2 OS. Particulars: for Emax: read-out: GTPγS μ Emax.
The next test has as its target κ opioid receptor (Homo sapiens, UniProt P41145). Description: κ-opioid receptor [35S]GTPγS functional assay, U-2 OS cells. It counts as biochemical. Also on record: expressed in transfected cells; host or cells: U-2 OS (in-house membranes). The following applies: for Emax: relative to U69,593, read-out: GTPγS κ Emax. Background: GTPγS is a poorly hydrolysed GTP analogue; its binding reports G protein activation.

In test [2] the target is T1, μ-opioid receptor. Description: μ-opioid receptor [35S]GTPγS functional assay, HEK-293 or CHO cells.
Setting [3] is: U-2 OS cells, read-out: GTPγS μ EC50.
Where [4] appears, read: U-2 OS cells, relative to DAMGO.
Where [5] appears, read: U-2 OS cells, read-out: GTPγS κ EC50.

T1 sequence (P35372 whole entry, species assumed): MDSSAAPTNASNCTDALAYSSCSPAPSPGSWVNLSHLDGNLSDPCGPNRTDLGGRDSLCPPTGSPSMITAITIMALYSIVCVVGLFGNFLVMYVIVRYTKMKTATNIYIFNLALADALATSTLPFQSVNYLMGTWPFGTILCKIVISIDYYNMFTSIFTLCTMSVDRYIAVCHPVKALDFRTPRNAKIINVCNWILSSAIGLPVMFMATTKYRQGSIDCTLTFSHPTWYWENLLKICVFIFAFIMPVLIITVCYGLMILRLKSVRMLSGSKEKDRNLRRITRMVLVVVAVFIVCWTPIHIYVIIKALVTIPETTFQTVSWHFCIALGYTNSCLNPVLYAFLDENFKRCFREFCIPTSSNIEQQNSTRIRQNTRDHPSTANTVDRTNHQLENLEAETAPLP
Chain of κ opioid receptor (P41145 whole entry): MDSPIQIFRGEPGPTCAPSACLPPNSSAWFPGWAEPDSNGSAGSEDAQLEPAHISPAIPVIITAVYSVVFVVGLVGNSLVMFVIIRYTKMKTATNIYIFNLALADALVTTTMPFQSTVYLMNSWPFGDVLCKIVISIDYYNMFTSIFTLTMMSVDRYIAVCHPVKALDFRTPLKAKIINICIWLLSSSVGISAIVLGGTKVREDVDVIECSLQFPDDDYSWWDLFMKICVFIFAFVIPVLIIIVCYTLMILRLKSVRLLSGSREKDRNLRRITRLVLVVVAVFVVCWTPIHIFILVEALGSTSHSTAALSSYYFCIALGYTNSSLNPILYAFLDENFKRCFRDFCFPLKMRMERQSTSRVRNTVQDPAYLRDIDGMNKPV
Protocol for κ opioid receptor: Membranes from recombinant HEK-293 cells, CHO or U-2 OS cells expressing the recombinant human κ opioid receptor (κ) were prepared by lysing cells in ice cold hypotonic buffer (2.5 mM MgCl2, 50 mM HEPES, pH 7.4) (10 mL/10 cm dish) followed by homogenization with a tissue grinder/Teflon pestle. […] Membranes were collected by centrifugation at 30,000×g for 15 min at 4° C. and pellets were resuspended in hypotonic buffer to a final concentration of 1-3 mg/mL. Protein concentrations were determined using the BioRad protein assay reagent with bovine serum albumen as standard. Aliquots of κ receptor membranes were stored at −80° C.
Plates were incubated for 30 min at a temperature of about 25° C. with shaking.

For the compound `CN([C@@H]1[C@H]2Cc3ccc(O)cc3[C@]1(C)CCN2CC1CC1)S(=O)(=O)c1cccc(C(F)(F)F)c1` [Compound 130, N-((2R,6S,11S)-3-(cyclopropylmethyl)-8-hydroxy-6-methyl-1,2,3,4,5,6-hexahydro-2,6-methanobenzo[d]azocin-11-yl)-N-methyl-3-(trifluoromethyl)benzenesulfonamide], the figures for the EC50 on μ-opioid receptor [1] (setting [3]) and at κ opioid receptor (setting [5]) were 373 ± 105 nM and 22.8 ± 3.38 nM, respectively. The Emax on μ-opioid receptor [1] (setting [4]) was 29 ± 2%; at κ opioid receptor (U-2 OS cells), 71 ± 3.11%.
Consider `CN1CC[C@@]2(C)c3cc(O)ccc3C[C@@H]1[C@H]2N(C)C(=O)c1ccsc1` [Compound 125, N-((2R,6S,11S)-8-hydroxy-3,6-dimethyl-1,2,3,4,5,6-hexahydro-2,6-methanobenzo[d]azocin-11-yl)-N-methylthiophene-3-carboxamide], for which the 50% effective concentration (EC50) at μ-opioid receptor [1] (setting [3]) turned out to be 2620 ± 396 nM; at κ opioid receptor (setting [5]) it was 443 ± 73.2 nM. For the same compound, the maximum response (Emax) at μ-opioid receptor [1] (setting [4]) is 70.7 ± 2.33%; on κ opioid receptor (U-2 OS cells), 102 ± 5.69%.
The like results for `CN1CC[C@@]2(C)c3cc(O)ccc3C[C@@H]1[C@H]2N(C)C(=O)Cc1ccccc1` [Compound 117, N-((2R,6S,11S)-8-hydroxy-3,6-dimethyl-1,2,3,4,5,6-hexahydro-2,6-methanobenzo[d]azocin-11-yl)-N-methyl-2-phenylacetamide] were, in that order, 822 ± 93.9 nM, 3390 ± 439 nM, 93.7 ± 5.36% and 79.7 ± 5.46%.
With `CN1CC[C@@]2(C)c3cc(O)ccc3C[C@@H]1[C@H]2N(C)C(=O)c1ccc(C(F)(F)F)cn1` [Compound 126, N-((2R,6S,11S)-8-hydroxy-3,6-dimethyl-1,2,3,4,5,6-hexahydro-2,6-methanobenzo[d]azocin-11-yl)-N-methyl-5-(trifluoromethyl)picolinamide], the figures for the EC50 on μ-opioid receptor [1] (setting [3]) and on κ opioid receptor (setting [5]) were 147 ± 9.47 nM and 1470 ± 91.3 nM, respectively. In addition, the Emax at μ-opioid receptor [1] (setting [4]) turned out to be 103 ± 2.4%; at κ opioid receptor (U-2 OS cells) it was 63.7 ± 3.93%.
For `CN(C(=O)Nc1ccc(C(C)(C)C)cc1)[C@@H]1[C@H]2Cc3ccc(O)cc3[C@]1(C)CCN2CC1CC1` [Compound 133, 3-(4-(tert-butyl)phenyl)-1-((2R,6S,11S)-3-(cyclopropylmethyl)-8-hydroxy-6-methyl-1,2,3,4,5,6-hexahydro-2,6-methanobenzo[d]azocin-11-yl)-1-methylurea], the results for the EC50 on μ-opioid receptor [1] (setting [3]) and at κ opioid receptor (setting [5]) were 3.9 ± 0.74 nM and 21.7 ± 3.16 nM, respectively. The Emax at μ-opioid receptor [1] (setting [4]) is 22.3 ± 1.2%; at κ opioid receptor (U-2 OS cells), 42 ± 4.02%.
`CN1CC[C@@]2(C)c3cc(O)ccc3C[C@@H]1[C@@H]2NCC1CCN(C(=O)OC(C)(C)C)CC1` [Compound 107, tert-butyl 4-((((2R,6S,11R)-8-hydroxy-3,6-dimethyl-1,2,3,4,5,6-hexahydro-2,6-methanobenzo[d]azocin-11-yl)amino)methyl)piperidine-1-carboxylate]: the EC50 was 46.2 ± 0.35 nM on μ-opioid receptor [1] (setting [3]) and above 20000 nM at κ opioid receptor (U-2 OS cells, bound in μM, read-out: GTPγS κ EC50). Further, at μ-opioid receptor [1] (setting [4]), the “GTPγS μ Emax” value was 58.30 ± 0.33%. Also, the Emax on κ opioid receptor (U-2 OS cells) was 1%.
Turning to `CN1CC[C@@]2(C)c3cc(O)ccc3C[C@@H]1[C@@H]2N(C)C(=O)c1ccsc1` [Compound 124, N-((2R,6S,11R)-8-hydroxy-3,6-dimethyl-1,2,3,4,5,6-hexahydro-2,6-methanobenzo[d]azocin-11-yl)-N-methylthiophene-3-carboxamide], the EC50 at μ-opioid receptor [1] (setting [3]) amounted to 14.1 ± 0.48 nM; at κ opioid receptor (setting [5]) it was 680 ± 67.7 nM. For the same compound, the Emax stood at 98 ± 3.06% on μ-opioid receptor [1] (setting [4]) and 77.3 ± 4.63% on κ opioid receptor (U-2 OS cells).
Take `CCC[C@@]12CCN(C)C(Cc3ccc(OC)cc31)[C@@H]2N(C)C(=O)Nc1ccc(C#N)cc1` [Compound 136, 3-(4-cyanophenyl)-1-((6R,11R)-8-methoxy-3-methyl-6-propyl-1,2,3,4,5,6-hexahydro-2,6-methanobenzo[d]azocin-11-yl)-1-methylurea]: the EC50 on μ-opioid receptor [1] (setting [3]) amounted to 2330 ± 236 nM; on κ opioid receptor (setting [5]), 3830 ± 541 nM. In addition, the Emax at μ-opioid receptor [1] (setting [4]) was determined as 62.3 ± 3.84%; at κ opioid receptor (U-2 OS cells), 22.3 ± 3.71%.
As for `CN1CC[C@@]2(C)c3cc(O)ccc3C[C@@H]1[C@@H]2NCCc1ccc(Cl)c(Cl)c1` [Compound 98, (2R,6S,11R)-11-((3,4-dichlorophenethyl)amino)-3,6-dimethyl-1,2,3,4,5,6-hexahydro-2,6-methanobenzo[d]azocin-8-ol], the EC50 on μ-opioid receptor [1] (setting [3]) worked out at 0.3 ± 0.027 nM; on κ opioid receptor (setting [5]) it was 28.6 ± 3.21 nM. Further, the figures for the maximum response (Emax) at μ-opioid receptor [1] (setting [4]) and at κ opioid receptor (U-2 OS cells) were 104 ± 3.76% and 95.3 ± 3.84%, respectively.
The like results for `CN1CC[C@@]2(C)c3cc(O)ccc3C[C@@H]1[C@H]2N(C)CCc1ccc(S(N)(=O)=O)cc1` [Compound 109, 4-(2-(((2R,6S,11S)-8-hydroxy-3,6-dimethyl-1,2,3,4,5,6-hexahydro-2,6-methanobenzo[d]azocin-11-yl)(methyl)amino)ethyl)benzenesulfonamide] were, in that order, 29 ± 1.36 nM, 192 ± 41.6 nM, 100 ± 3.18% and 36.7 ± 0.67%.
For `CN1CC[C@@]2(C)c3cc(O)ccc3C[C@@H]1[C@H]2NCCc1ccc(Cl)c(Cl)c1` [Compound 99, (2R,6S,11S)-11-((3,4-dichlorophenethyl)amino)-3,6-dimethyl-1,2,3,4,5,6-hexahydro-2,6-methanobenzo[d]azocin-8-ol], the EC50 at μ-opioid receptor [1] (setting [3]) stood at 0.13 ± 0.01 nM; on κ opioid receptor (setting [5]), 1.44 ± 0.053 nM. Also, the Emax is 71 ± 2% on μ-opioid receptor [1] (setting [4]) and 72.3 ± 4.67% at κ opioid receptor (U-2 OS cells).
Consider `CN(C(=O)c1ccsc1)[C@@H]1[C@H]2Cc3ccc(O)cc3[C@]1(C)CCN2CC1CC1` [Compound 114, N-((2R,6S,11S)-3-(cyclopropylmethyl)-8-hydroxy-6-methyl-1,2,3,4,5,6-hexahydro-2,6-methanobenzo[d]azocin-11-yl)-N-methylthiophene-3-carboxamide], for which the EC50 at μ-opioid receptor [1] (setting [3]) is 152 ± 16.8 nM; on κ opioid receptor (setting [5]), 18.9 ± 2.01 nM. Also, the Emax turned out to be 20.7 ± 0.67% on μ-opioid receptor [1] (setting [4]) and 107 ± 4.36% at κ opioid receptor (U-2 OS cells).
Turning to `CCC[C@@]12CCN(C)C(Cc3ccc(O)cc31)[C@H]2N(C)C(=O)Nc1ccc(C#N)cc1` [Compound 137, 3-(4-cyanophenyl)-1-((6R,11S)-8-hydroxy-3-methyl-6-propyl-1,2,3,4,5,6-hexahydro-2,6-methanobenzo[d]azocin-11-yl)-1-methylurea], the EC50 on μ-opioid receptor [1] (setting [3]) was 1320 ± 178 nM; on κ opioid receptor (setting [5]), 3370 ± 753 nM. The Emax at μ-opioid receptor [1] (setting [4]) was 50.3 ± 1.76%; on κ opioid receptor (U-2 OS cells), 30 ± 2.31%.
As for `CN1CC[C@@]2(C)c3cc(O)ccc3C[C@@H]1[C@@H]2NCCc1ccc(F)cc1` [Compound 101, (2R,6S,11R)-11-((4-fluorophenethyl)amino)-3,6-dimethyl-1,2,3,4,5,6-hexahydro-2,6-methanobenzo[d]azocin-8-ol], the half-maximal effective concentration (EC50) at μ-opioid receptor [1] (GTPγS μ EC50, U-2 OS cells) is 3.73 ± 0.21 nM; on κ opioid receptor, 1080 ± 113 nM. For the same compound, at κ opioid receptor (U-2 OS cells), the maximum response (Emax) is 66.7 ± 1.2%.
`CN1CC[C@@]2(C)c3cc(O)ccc3C[C@@H]1[C@@H]2NCCc1cccs1` [Compound 104, (2R,6S,11R)-3,6-dimethyl-11-((2-(thiophen-2-yl)ethyl)amino)-1,2,3,4,5,6-hexahydro-2,6-methanobenzo[d]azocin-8-ol]: the figures for the EC50 at μ-opioid receptor [1] (setting [3]) and at κ opioid receptor (setting [5]) were 51.3 ± 5.26 nM and 1260 ± 229 nM, respectively. Besides, the Emax at μ-opioid receptor [1] (setting [4]) was determined as 105.3 ± 0.88%; at κ opioid receptor (U-2 OS cells) it was 79.7 ± 5.9%.
As for `CN1CC[C@@]2(C)c3cc(O)ccc3C[C@@H]1[C@@H]2NC(=O)Nc1nc2cc(F)ccc2s1` [Compound 139, 1-(5-fluorobenzo[d]thiazol-2-yl)-3-((2R,6S,11R)-8-hydroxy-3,6-dimethyl-1,2,3,4,5,6-hexahydro-2,6-methanobenzo[d]azocin-11-yl)urea], the EC50 came to 12.5 ± 2.18 nM on μ-opioid receptor [1] (setting [3]) and 91.8 ± 4.88 nM at κ opioid receptor (setting [5]). Moreover, the Emax amounted to 87 ± 3.08% on μ-opioid receptor [1] (setting [4]) and 48 ± 5.13% on κ opioid receptor (U-2 OS cells).
Consider `CN(C(=O)c1ccccc1)[C@@H]1[C@H]2Cc3ccc(O)cc3[C@]1(C)CCN2CC1CC1` [Compound 115, N-((2R,6S,11S)-3-(cyclopropylmethyl)-8-hydroxy-6-methyl-1,2,3,4,5,6-hexahydro-2,6-methanobenzo[d]azocin-11-yl)-N-methylbenzamide], for which the EC50 on μ-opioid receptor [1] (setting [3]) stood at 159 ± 15.4 nM; on κ opioid receptor (setting [5]), 53.4 ± 7.28 nM. Also, the values for the Emax on μ-opioid receptor [1] (setting [4]) and at κ opioid receptor (U-2 OS cells) were 37.7 ± 1.67% and 76 ± 6.66%, respectively.
`C[C@]12CCN(CC3CC3)[C@H](Cc3ccc(O)cc31)[C@H]2NC(=O)c1ccsc1` [Compound 113, N-((2R,6S,11S)-3-(cyclopropylmethyl)-8-hydroxy-6-methyl-1,2,3,4,5,6-hexahydro-2,6-methanobenzo[d]azocin-11-yl)thiophene-3-carboxamide]: the EC50 at μ-opioid receptor [1] (setting [3]) came to 0.45 ± 0.036 nM; on κ opioid receptor (setting [5]), 0.052 ± 0.013 nM. For the same compound, the Emax at μ-opioid receptor [1] (setting [4]) is 68.7 ± 3.71%; at κ opioid receptor (U-2 OS cells), 99.2 ± 1.65%.
As for `C[C@]12CCN(CC3CC3)[C@H](Cc3ccc(O)cc31)[C@@H]2NCCc1ccc(S(N)(=O)=O)cc1` [Compound 96, 4-(2-(((2R,6S,11R)-3-(cyclopropylmethyl)-8-hydroxy-6-methyl-1,2,3,4,5,6-hexahydro-2,6-methanobenzo[d]azocin-11-yl)amino)ethyl)benzenesulfonamide], the EC50 at μ-opioid receptor [1] (setting [3]) stood at 6.01 ± 0.51 nM; at κ opioid receptor (setting [5]), 6.41 ± 1.67 nM. In addition, the Emax at μ-opioid receptor [1] (setting [4]) was 32.3 ± 0.88%.
As to `CN1CC[C@@]2(C)c3cc(O)ccc3C[C@@H]1[C@@H]2N(C)C(=O)c1ccccc1` [Compound 119, N-((2R,6S,11R)-8-hydroxy-3,6-dimethyl-1,2,3,4,5,6-hexahydro-2,6-methanobenzo[d]azocin-11-yl)-N-methylbenzamide], the EC50 on μ-opioid receptor [1] (setting [3]) was found to be 32.2 ± 3.26 nM; on κ opioid receptor (setting [5]), 383 ± 21.9 nM. Besides, the Emax on μ-opioid receptor [1] (setting [4]) stood at 100 ± 2.73%; at κ opioid receptor (U-2 OS cells) it was 96.7 ± 5.36%.
On μ-opioid receptor [2], `COc1ccc2c(c1)[C@@]1(C)CCN(C)C(C2)C1N1CCC(N)CC1` (stereo partly drawn) [Compound 70, 1-((6R)-8-methoxy-3,6-dimethyl-1,2,3,4,5,6-hexahydro-2,6-methanobenzo[d]azocin-11-yl)piperidin-4-amine] registered an EC50 of 9380 ± 501 nM. For the same compound, the Emax at μ-opioid receptor [2] (read-out: GTPγS μ Emax) is 24.7 ± 0.88%.
